Laboratory results from patent US7960368B2, “Bismethylene-17A carbolactones and related uses” (Everstra, Inc., priority 2008, dated 2011).
Values joined by “and” are separate entries in the source; they are usually repeats but may differ in a detail not shown here. Identical values can stand only once. Like-named read-outs stand apart in the source and are kept apart here.

Key:
[1] = molecular target: T1, recombinant human progesterone receptor A (hPR-A) (Homo sapiens, UniProt P06401); experiment: Progestin receptor binding assay, hPR-A; conditions: for IC50: competition with [3H]-progesterone; for hPR-A RBA: relative binding affinity, progesterone = 100
T1 sequence (P06401 1-769 isoform P06401-2): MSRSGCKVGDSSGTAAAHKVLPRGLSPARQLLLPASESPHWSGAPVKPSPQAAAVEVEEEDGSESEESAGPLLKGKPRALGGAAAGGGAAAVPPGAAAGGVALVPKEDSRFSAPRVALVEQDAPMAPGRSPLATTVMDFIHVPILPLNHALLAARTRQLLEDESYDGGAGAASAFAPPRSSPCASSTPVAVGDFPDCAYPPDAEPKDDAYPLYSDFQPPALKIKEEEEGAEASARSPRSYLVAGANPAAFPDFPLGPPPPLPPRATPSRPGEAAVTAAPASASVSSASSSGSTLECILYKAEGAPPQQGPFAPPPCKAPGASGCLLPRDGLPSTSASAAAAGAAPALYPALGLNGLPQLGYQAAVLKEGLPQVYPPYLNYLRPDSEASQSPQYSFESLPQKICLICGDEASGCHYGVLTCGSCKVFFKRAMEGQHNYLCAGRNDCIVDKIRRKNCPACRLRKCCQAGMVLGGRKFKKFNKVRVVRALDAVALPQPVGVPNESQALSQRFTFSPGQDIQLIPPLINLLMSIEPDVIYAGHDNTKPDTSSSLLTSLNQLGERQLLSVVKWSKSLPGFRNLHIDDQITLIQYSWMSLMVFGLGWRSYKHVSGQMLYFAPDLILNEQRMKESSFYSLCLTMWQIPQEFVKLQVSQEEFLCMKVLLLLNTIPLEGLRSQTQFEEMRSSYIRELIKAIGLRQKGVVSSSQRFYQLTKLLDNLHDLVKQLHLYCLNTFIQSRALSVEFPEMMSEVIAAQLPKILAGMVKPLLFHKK
Protocol: (§1) “No compound” controls contain DMSO/binding buffer without compound. The plates are incubated overnight at 4° C., after which solutions in the plates are aspirated and washed six times with PBS, followed by the addition of MicroScint-20 scintillation cocktail (Packard). The plates are sealed using transparent sealing tape and counted for radioactivity by use of the scintillation counter.

[2] = molecular target: T2, recombinant human progesterone receptor B (hPR-B) (Homo sapiens, UniProt P06401); experiment: Progestin receptor binding assay, hPR-B; conditions: for IC50: competition with [3H]-progesterone; for hPR-B RBA: relative binding affinity, progesterone = 100
T2 sequence (P06401 1-933): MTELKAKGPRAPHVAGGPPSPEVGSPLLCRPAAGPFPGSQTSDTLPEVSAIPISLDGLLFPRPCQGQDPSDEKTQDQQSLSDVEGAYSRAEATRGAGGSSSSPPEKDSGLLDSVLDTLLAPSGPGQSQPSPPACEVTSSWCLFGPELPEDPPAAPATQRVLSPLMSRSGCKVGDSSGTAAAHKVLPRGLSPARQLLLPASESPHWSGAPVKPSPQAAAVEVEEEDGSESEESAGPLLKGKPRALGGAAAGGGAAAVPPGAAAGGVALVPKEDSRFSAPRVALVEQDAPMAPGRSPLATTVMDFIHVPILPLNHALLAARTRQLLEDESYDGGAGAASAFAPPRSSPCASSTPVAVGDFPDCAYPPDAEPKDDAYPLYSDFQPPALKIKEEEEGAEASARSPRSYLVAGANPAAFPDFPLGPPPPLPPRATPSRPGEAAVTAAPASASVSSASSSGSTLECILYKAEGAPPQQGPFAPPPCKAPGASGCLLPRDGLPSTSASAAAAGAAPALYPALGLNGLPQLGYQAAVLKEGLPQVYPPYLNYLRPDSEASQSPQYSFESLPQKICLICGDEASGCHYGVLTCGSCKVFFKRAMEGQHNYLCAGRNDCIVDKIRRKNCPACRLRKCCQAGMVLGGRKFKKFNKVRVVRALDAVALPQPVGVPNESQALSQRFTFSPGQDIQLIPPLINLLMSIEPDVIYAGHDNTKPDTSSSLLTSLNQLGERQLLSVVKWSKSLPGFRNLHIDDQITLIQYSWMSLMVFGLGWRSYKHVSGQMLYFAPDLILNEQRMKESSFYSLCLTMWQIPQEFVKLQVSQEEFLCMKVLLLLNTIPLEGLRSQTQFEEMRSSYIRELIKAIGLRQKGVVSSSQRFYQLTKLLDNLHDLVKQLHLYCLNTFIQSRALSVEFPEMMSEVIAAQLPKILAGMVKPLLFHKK
Protocol: as §1

[3] = molecular target: T3, recombinant rat androgen receptor ligand binding domain (ARLBD) (Rattus norvegicus, UniProt P15207); experiment: Androgen receptor binding assay; conditions: for IC50: superscript marks the assay run
T3 sequence (P15207 651-882 limits assumed): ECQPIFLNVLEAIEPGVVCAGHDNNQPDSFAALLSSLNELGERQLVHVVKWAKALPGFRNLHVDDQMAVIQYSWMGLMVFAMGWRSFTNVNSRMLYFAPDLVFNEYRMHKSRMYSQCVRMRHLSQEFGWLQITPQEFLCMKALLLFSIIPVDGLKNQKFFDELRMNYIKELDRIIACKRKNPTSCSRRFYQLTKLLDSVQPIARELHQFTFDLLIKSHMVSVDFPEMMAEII
Protocol: The relative affinity of test substances for the androgen receptor was taken as a measure of androgen antagonist activity and of the potential for anti-androgen side effects. […] Different concentrations (e.g., 10 nM, 15 nM or 30 nM) of purified recombinant ARLBD are immobilized to an OptiPlate 96-well microtiter plate (Packard) via incubation at 4° C. in 100 μl/well PBS containing ARLBD. […] “No compound” controls contain DMSO/binding buffer without compound. The plates are incubated overnight at 4° C., after which solutions in the plates are aspirated and washed six times with PBS, followed by the addition of MicroScint-20 scintillation cocktail (Packard). The plates are sealed using transparent sealing tape and counted for radioactivity by use of the scintillation counter. The data thus obtained is used to determine the IC50 values and the relative binding affinity (“RBA”) of the androgen receptor for the test compound.

[4] = molecular target: T4, recombinant human glucocorticoid receptor (rhGR) (Homo sapiens, UniProt P04150); experiment: Glucocorticoid receptor binding assay; conditions: hGR IC50, competition with 10 nM [3H]dexamethasone; superscript marks the assay run
T4 sequence (P04150 1-777): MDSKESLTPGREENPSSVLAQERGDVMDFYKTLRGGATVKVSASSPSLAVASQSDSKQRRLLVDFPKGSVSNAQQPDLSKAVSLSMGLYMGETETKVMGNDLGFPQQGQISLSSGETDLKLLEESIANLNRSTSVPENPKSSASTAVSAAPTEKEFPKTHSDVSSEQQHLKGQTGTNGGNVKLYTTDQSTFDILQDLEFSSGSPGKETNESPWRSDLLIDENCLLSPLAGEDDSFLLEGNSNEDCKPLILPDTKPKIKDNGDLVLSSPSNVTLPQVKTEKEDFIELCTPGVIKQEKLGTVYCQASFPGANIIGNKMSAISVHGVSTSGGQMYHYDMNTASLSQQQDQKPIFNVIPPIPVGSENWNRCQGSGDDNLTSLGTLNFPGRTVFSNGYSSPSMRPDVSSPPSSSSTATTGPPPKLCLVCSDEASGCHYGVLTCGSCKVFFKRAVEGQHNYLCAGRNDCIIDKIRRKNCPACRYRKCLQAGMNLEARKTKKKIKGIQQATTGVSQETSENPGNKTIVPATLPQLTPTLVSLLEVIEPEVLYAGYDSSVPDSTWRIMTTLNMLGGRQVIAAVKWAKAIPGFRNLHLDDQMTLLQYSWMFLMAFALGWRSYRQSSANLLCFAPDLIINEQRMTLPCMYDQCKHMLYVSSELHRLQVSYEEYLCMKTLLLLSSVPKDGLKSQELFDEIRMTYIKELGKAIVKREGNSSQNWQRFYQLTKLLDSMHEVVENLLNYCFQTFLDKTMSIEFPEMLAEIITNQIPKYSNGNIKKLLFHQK
Protocol: DCC is added to the wells after incubation to separate bound and unbound radioligand using a repeater pipettor to reduce variability.
Recombinant human GR: 8.6 pmol/mg, 80 pmol/ml. • 2. KEM buffer (10 mM KPO4, pH 7.4, 0.1 mM EDTA, 20 mM Na2MoO4) • 3. KEMD buffer (KEM buffer+5 mM DTT, add DTT the day of assay) • 4. […] 5% Dextran-coated charcoal solution in DEM buffer B. Assay Method—Set Up on Ice. • 1. Dilute 4×10^−3 M CDB-3972 to 4×10^−5 M (40 μM) in KEMD for NSB. The final concentration will be 10 μM. • 2. Thaw the rhGR on ice. […] Dilute rhGR 1:5 (80 pmol/ml) to 16.0 pmol/ml in KEMD. At 25 μl/tube, the final concentration will be 400 fmol/tube in KEMD. • 3. Prepare KEMD containing 10% ethanol. Dilute the compounds to be assayed in KEMD containing 10% ethanol to the working concentrations specified in Table 3. • 4. Prepare a 40 nM solution [^3H]Dex in KEMD containing 10% ethanol. The final concentration will be 10 nM. • 5. Set up the assay in microplates. Use 3 wells for total counts (no receptor), 3 NSB, 6 total binding, and triplicate wells for each concentration of dex or CDB compound. […] Mix gently, and incubate overnight at 2-6° C.
The next morning, prechill the Jouan centrifuge with microplate rotor. Add 50 μl of 5% DCC in KEM to all but total counts using a repeater pipettor. Make sure the DCC is constantly mixed and thoroughly resuspended before adding to the wells. • 7. Mix gently in the cold room for 5 min on plate shaker. • 8. Centrifuge at 3,000 rpm in the Jouan centrifuge at 4° C. for 15 min. • 9. Keeping the plates on ice, pipet 100 μl of the supernatants into 24-well plates, add 1 ml of Microscint PS, and seal the plates. Pre-incubate the plates for 10 min in the counter, and count each well for 2 min in the TopCount.

[5] = single entity tablet; cited from earlier work
[6] = various pH values; cited from earlier work
[7] = acidic conditions such as the gastric environment; cited from earlier work
[8] = competition with 5 nM [3H]-R1881, read-out: ARLBD IC50
[9] = ARLBD IC50, competition with 5 nM [3H]-R1881

| SMILES | IC50 [1] | hPR-A RBA [1] | IC50 [2] | hPR-B RBA [2] | ARLBD RBA [3] | IC50 [3, 8] | IC50 [4] | IC50 [3, 9] | ARLBD RBA ([3]; relative binding affinity, R1881 = 100, same assay run) | absolute bioavailability [5] | solubility in water [6] | isomerization under acidic conditions [7] |
| --- | --- | --- | --- | --- | --- | --- | --- | --- | --- | --- | --- | --- |
| C[C@]12CC3(CC3)C(=O)C=C1[C@@H]1CC1C1C2CC[C@@]2(C)C1[C@@H]1CC1[C@@]21CCC(=O)O1 (stereo partly drawn) [Compound (IIIe), 2,2-Ethylene-6β,7β:15β,16β-dimethylene-3-oxo-17α-pregn-4-ene-21,17-carbolactone] | > 1000 nM | <0.6% | > 1000 nM | <0.6% | <0.6% and <0.5% | > 1000 nM | > 1000 nM |  |  |  |  |  |
| C[C@]12CCC(=O)C=C1C1(CC1)CC1C2CC[C@@]2(C)C1[C@@H]1CC1[C@@]21CCC(=O)O1 (stereo partly shown) [Compound (IVa)] | 3.5 nM | 149% | 5.1 nM | 116% | 20% and 25% |  | 45.1 nM and 64 nM | 28 nM and 17.7 nM |  |  |  |  |
| C[C@]12C=CC(=O)C=C1C1(CC1)CC1C2CC[C@@]2(C)C1[C@@H]1CC1[C@@]21CCC(=O)O1 (stereo partly drawn) [Compound (IVb), 6,6-ethylene-15β,16β-methylene-3-oxo-17α-pregna-1,4-diene 21,17-carbolactone] | 13.8 nM | 38% | 15.4 nM | 38% | 5% and 4% | 101 nM and 108 nM | 87.9 nM and 121 nM |  |  |  |  |  |
| C[C@@]12C(=CC(=O)C3C[C@@H]31)C1(CC1)CC1C2CC[C@@]2(C)C1[C@@H]1CC1[C@@]21CCC(=O)O1 (stereo partly drawn) [Compound (IVc), 1α,2α:15β,16β-Dimethylene-6,6-ethylene-3-oxo-17α-pregn-4-ene-21,17-carbolactone] | 6.7 nM | 78% | 8.3 nM | 71% | 7% and 5% |  | 117 nM and 300 nM | 83.6 nM and 80.9 nM |  |  |  |  |
| C[C@]1(O)CC[C@H]2[C@@H]3CCC4=CC(=O)CCC4=C3C=C[C@@]21C [Compound R1881, methyltrienolone, reference compound] |  |  |  |  |  |  |  |  | 100% |  |  |  |
| C[C@]12CCC(=O)C=C1[C@@H]1C[C@@H]1[C@H]1[C@@H]3[C@@H]4C[C@@H]4[C@@]4(CCC(=O)O4)[C@@]3(C)CC[C@@H]12 [Drospirenone, 6β,7β,15β,16β-dimethylene-3-oxo-17α-pregn-4-ene-21,17-carbolactone] |  | 23% |  | 29% |  |  |  |  |  | about 76% | sparingly soluble | undergo isomerization to a form that is inactive |
